Paper PMC8909107, “Imaging Kv1.3 Expressing Memory T Cells as a Marker of Immunotherapy Response” (Cancers, 2022)
Bridges are numbered along the chain shown (N, C = ends). Where no end group is shown, it is not given here. The star is where a group is joined. NOTA = O=C(O)CN1CCN(CC(=O)O)CCN(CC(=O)*)CC1

Experiments:
[1] = target: T1, KV1.3 channels (L929 fibroblasts stably expressing KV1.3) (Mus musculus, UniProt P16390); assay: Patch-clamp (QPatch HTX), run-down of Kv1.3 currents after overnight exposure; type: cell-based; conditions: L929-KV1.3 cells, overnight exposure 0.1, 1 or 10 μM; current density (pA/pF) at pulses 18-20 normalized to control; n = 13; read-out: IC50 (50% suppression) from normalized current density
T1 construct: expressed in transfected cells
T1 sequence (P16390 whole entry): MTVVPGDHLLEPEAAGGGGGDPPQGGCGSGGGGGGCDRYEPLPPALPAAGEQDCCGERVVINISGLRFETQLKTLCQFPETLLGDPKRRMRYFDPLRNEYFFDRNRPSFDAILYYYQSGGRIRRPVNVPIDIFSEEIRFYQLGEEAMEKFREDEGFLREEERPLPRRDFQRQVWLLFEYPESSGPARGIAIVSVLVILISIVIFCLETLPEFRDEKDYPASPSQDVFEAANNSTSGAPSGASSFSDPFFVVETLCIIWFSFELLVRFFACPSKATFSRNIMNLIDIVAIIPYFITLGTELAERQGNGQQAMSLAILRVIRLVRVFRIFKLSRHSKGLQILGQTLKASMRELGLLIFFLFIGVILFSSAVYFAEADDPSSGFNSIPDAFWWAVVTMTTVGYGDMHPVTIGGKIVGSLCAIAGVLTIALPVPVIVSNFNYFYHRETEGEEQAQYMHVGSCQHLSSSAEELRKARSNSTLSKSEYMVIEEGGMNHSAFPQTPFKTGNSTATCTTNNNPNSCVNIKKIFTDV
Description: The effects of the peptides NOTA-KCNA3P and EgK5 on KV1.2, KV1.3 and KV1.5 [19] channels were evaluated by patch-clamp as detailed in the Supplementary Materials (Supplementary Figure S3) using a QPatch HTX automated electrophysiology platform.
We used patch-clamp analysis to determine if NOTA-KCNA3P modulates Kv1.3 channels such as EgK5. We exposed L929 fibroblasts stably expressing KV1.3 channels overnight to NOTA-KCNA3P (0.1, 1 or 10 μM) or EgK5 (10 μM) dissolved in P6N buffer, or to media containing an equal volume of P6N buffer. […] Concentration–response curves generated with either normalized current amplitude or normalized current density yielded IC50 (50% suppression) values of […] and 50 nM, respectively, for NOTA-KCNA3P (Supplementary Figure S3D,E). […]
[18F]AlF-NOTA-KCNA3P was between 8.2 - 8.3 min. […] The radiochemical purity of [18F]AlF-NOTA-KCNA3P was assessed by analytical radio-HPLC (Aeris™ 5µm PEPTIDE XB-C18, 100 Å, 250 x 4.6 mm; 1 ml / min, λ = 220 nm). […]
NOTA-KCNA3P and EgK5 were prepared as 1-10 mM stock solutions in P6N buffer (10 mM sodium phosphate, 0.8% w/v, NaCl, and 0.05% v/v Tween 20, pH 6), diluted with 0.1% (w/v) BSA in external buffer. The effects of peptides on KV1.2, KV1.3 and KV1.5[1] channels were evaluated by patch-clamp using a QPatch HTX automated electrophysiol-ogy platform (Sophion, Denmark) (Supplementary Figure S3). […]

[2] = PET-CT tumour retention of the tracer after ICI treatment; type: in vivo, BALB/c mice; conditions: BALB/c, mouse, CT26 tumour, iv, 10 MBq, total radioactivity, PET-CT day 12, 20 min static from 60 min post-injection, ~10 MBq i.v., mean ± SD
Description: All animal procedures strictly followed IACUC guidelines (IACUC No. 181399) and conformed to NIH guidelines and public law. Development of the animal model has been described previously. Briefly, BALB/c mice aged 6–8 weeks were purchased from In Vivos (Singapore) and implanted subcutaneously into the right shoulder with the murine colon cancer cell line CT26 (ATCC, 2 × 10^5 cells per animal 1:1 (v:v) ratio in Matrigel). Tumour volumes were repeatedly measured on days 6, 9, 12, 15, 19 and 21 post tumour implantation. The mice were randomised and dosed by intraperitoneal (i.p.) injection on days 6, 9 and 12 following tumour inoculation. Treatment groups included control (5 mg/kg, rat IgG2a isotype control, α-trinitrophenol mAb, IP), αPD1 mAb monotherapy (10 mg/kg, rat IgG2a anti-mouse PD-1, RMP1-14) and combined αPD1 and αCTLA4 mAb therapy (10 mg/kg and 5 mg/kg, respectively, mouse IgG2b anti-mouse CTLA-4, 9D9, Bio-X Cell).
(§1) Mice were imaged under isoflurane anaesthesia and injected with [^18F]AlF-NOTA-KCNA3P (~10 MBq) via the lateral tail vein. Dynamic time–activity curves were acquired to assess tracer uptake and clearance profiles (Supplementary Figure S4) and tail vein blood samples taken to assess in vivo metabolic stability (Supplementary Figure S7). To stratify response to therapy, animals were imaged on day 12 using a Siemens Inveon PET-CT as previously described. Briefly, 20 min static PET acquisitions were acquired from 60 min post-injection and analysis of the reconstructed calibrated images was performed and volumes of interest delineated by CT imaging were used to determine tissue uptake (whole body distribution shown for reference in Supplementary Figure S8). Data are expressed as % of the injected dose per gram (%ID/g) of tumour tissue in the volume of interest.
Tumour uptake of [^18F]AlF-NOTA-KCNA3P was heterogeneous depending on treatment regime and treatment efficacy (Figure 3A) with a tumour-to-blood ratio (TBR) of ~2 in tumour responders and a TBR of ~1 in tumour non-responders (TNRs). Low tumour uptake of [^18F]AlF-NOTA-KCNA3P was measured in the TNRs and the control treatment arm. […] Tumour uptake of [^18F]AlF-NOTA-KCNA3P was sufficient to distinguish from background and differentiated responsive tumours from treated non-responders (Table 1 and Figure 3B,C) in vivo. Ex vivo biodistribution was used to confirm the imaging results (Supplementary Figure S5). Importantly, no difference was seen between non-responders and responders in the biodistribution of [^18F]AlF-NOTA-KCNA3P in muscle, blood, lung, skin, heart and brain, the only difference being in the tumour (Supplementary Figure S5).

[3] = set-up: species or system mice; conditions: in vivo, ~20MBq i.v., blood samples at 0, 30, 60 and 120 min p.i., radioHPLC, over 120 minutes
Description: as §1, with “Briefly, 20 min static PET acquisitions were acquired from 60 min post-injection and analysis of the reconstructed calibrated images was performed and volumes of interest delineated by CT imaging were used to determine tissue uptake (whole body distribution shown for reference in Supplementary Figure S8).” left out
Supplementary Figure S5. […] ICI treated responder (TR, black) and treated non responder (TNR, white) animals were sacrificed 80min post-injection, tissues excised, weighed and radioactivity quantified using a Wallac gamma counter. […]
Tumour Kv1.3 expression on infiltrating lymphocytes (TILs) were quantified using standard western blotting procedures as previously described. […]
An equal amount of 10% sulfosalicylic acid was added to the supernatant plasma samples and vortexed to precipitate out remaining proteins. The samples were centrifuged at 2,500 x g for 5 min at 4 °C, and the supernatant analyzed via radioHPLC. […]

[4] = type: in vivo, BalbC mice bearing CT26 tumours
Description: as §1
Tumour uptake of [^18F]AlF-NOTA-KCNA3P was heterogeneous depending on treatment regime and treatment efficacy (Figure 3A) with a tumour-to-blood ratio (TBR) of ~2 in tumour responders and a TBR of ~1 in tumour non-responders (TNRs). Low tumour uptake of [^18F]AlF-NOTA-KCNA3P was measured in the TNRs and the control treatment arm. […] Tumour uptake of [^18F]AlF-NOTA-KCNA3P was sufficient to distinguish from background and differentiated responsive tumours from treated non-responders (Table 1 and Figure 3B,C) in vivo. Ex vivo biodistribution was used to confirm the imaging results (Supplementary Figure S5). Importantly, no difference was seen between non-responders and responders in the biodistribution of [^18F]AlF-NOTA-KCNA3P in muscle, blood, lung, skin, heart and brain, the only difference being in the tumour (Supplementary Figure S5). […]
1.7 In vivo biodistribution of [18F]AlF-NOTA-KCNA3P
The biodistribution of [18F]AlF-NOTA-KCNA3P was assessed in BalbC mice bearing CT26 tumours treated with combined PD-1 and CTLA4 therapy. The animals were im-aged dynamically for 120 minutes and the distribution and excretion characteristics as- […]
the kidneys and hepatobiliary routes (Supplementary Figure S4). Blood clearance is […]
Supplementary Figure S5. Ex vivo biodistribution analysis of [18F]AlF-NOTA-KCNA3P retention in selected organs. ICI treated responder (TR, black) and treated non responder (TNR, white) animals were sacrificed 80min post-injection, tissues excised, weighed and radioactivity quantified using a Wallac gamma counter. Bars represent the mean of 5 animals ± SEM, * P<0.05.
1.9 Western blot analysis of Kv1.3 […]
The following anti- […]
bodies were used: anti-Kv1.3 KCNA3 (APC-101, Alomone) and anti-GAPDH (SC-47724, […]
Supplementary Figure S6. […]

**Q.** With “{NOTA}-RTCESASHKFEGPCLRDSNCANVCKTEGFHGGKCKGLRRRCFCTKHC (disulfide 3-47, 14-34, 20-41, 24-43) [NOTA-KCNA3P]” as the substance, how does the IC50 [1] read?
**A.** 50 nM

**Q.** What does the source list for “{NOTA}-RTCESASHKFEGPCLRDSNCANVCKTEGFHGGKCKGLRRRCFCTKHC (disulfide 3-47, 14-34, 20-41, 24-43) [[^18F]AlF-NOTA-KCNA3P]”?
**A.** tissue uptake ([2]; Control group (isotype IgG), n = 10 mice/group): 0.51 ± 0.19 %ID/g; tissue uptake ([2]; Treatment non-responders (TNR)): 0.53 ± 0.2 %ID/g; tissue uptake ([2]; Treatment responsive tumours (TR), αPD1 + αCTLA4): 1.3 ± 0.36 %ID/g; tissue uptake ([2]; Treatment responsive tumours (TR), αPD1): 0.87 ± 0.15 %ID/g; metabolism of parent tracer in plasma [3]: less than 30%; Blood clearance ([4]; dynamic PET 120 minutes): rapid; muscle uptake ([4]; dynamic PET 120 minutes): relatively low; excretion profile ([4]; dynamic PET 120 minutes, CT26 tumour mice treated with combined PD-1 and CTLA4 therapy): excretion via the kidneys and hepatobiliary routes; difference between non-responders and responders in biodistribution in muscle, blood, lung, skin, heart and brain ([4]; ex vivo biodistribution, 80min post-injection, gamma counter, 5 animals): no difference
